Measured values taken from ChEMBL document CHEMBL4043246, “Discovery of novel [1,2,4]triazolo[4,3-a]quinoxaline aminophenyl derivatives as BET inhibitors for cancer treatment” (Bioorg Med Chem Lett, 2017).

Molecular target: SWI/SNF-related matrix-associated actin-dependent regulator of chromatin subfamily A member 4 (Homo sapiens) (UniProt P51532)
Assay: Inhibition of human partial length SMARCA4 (A1448 to S1575 residues) expressed in bacterial expression system assessed as residual activity at 500 nM relative to control by BROMOscan assay

Sequence of SWI/SNF-related matrix-associated actin-dependent regulator of chromatin subfamily A member 4 (Homo sapiens) (P51532 whole entry, the tested form may be a part): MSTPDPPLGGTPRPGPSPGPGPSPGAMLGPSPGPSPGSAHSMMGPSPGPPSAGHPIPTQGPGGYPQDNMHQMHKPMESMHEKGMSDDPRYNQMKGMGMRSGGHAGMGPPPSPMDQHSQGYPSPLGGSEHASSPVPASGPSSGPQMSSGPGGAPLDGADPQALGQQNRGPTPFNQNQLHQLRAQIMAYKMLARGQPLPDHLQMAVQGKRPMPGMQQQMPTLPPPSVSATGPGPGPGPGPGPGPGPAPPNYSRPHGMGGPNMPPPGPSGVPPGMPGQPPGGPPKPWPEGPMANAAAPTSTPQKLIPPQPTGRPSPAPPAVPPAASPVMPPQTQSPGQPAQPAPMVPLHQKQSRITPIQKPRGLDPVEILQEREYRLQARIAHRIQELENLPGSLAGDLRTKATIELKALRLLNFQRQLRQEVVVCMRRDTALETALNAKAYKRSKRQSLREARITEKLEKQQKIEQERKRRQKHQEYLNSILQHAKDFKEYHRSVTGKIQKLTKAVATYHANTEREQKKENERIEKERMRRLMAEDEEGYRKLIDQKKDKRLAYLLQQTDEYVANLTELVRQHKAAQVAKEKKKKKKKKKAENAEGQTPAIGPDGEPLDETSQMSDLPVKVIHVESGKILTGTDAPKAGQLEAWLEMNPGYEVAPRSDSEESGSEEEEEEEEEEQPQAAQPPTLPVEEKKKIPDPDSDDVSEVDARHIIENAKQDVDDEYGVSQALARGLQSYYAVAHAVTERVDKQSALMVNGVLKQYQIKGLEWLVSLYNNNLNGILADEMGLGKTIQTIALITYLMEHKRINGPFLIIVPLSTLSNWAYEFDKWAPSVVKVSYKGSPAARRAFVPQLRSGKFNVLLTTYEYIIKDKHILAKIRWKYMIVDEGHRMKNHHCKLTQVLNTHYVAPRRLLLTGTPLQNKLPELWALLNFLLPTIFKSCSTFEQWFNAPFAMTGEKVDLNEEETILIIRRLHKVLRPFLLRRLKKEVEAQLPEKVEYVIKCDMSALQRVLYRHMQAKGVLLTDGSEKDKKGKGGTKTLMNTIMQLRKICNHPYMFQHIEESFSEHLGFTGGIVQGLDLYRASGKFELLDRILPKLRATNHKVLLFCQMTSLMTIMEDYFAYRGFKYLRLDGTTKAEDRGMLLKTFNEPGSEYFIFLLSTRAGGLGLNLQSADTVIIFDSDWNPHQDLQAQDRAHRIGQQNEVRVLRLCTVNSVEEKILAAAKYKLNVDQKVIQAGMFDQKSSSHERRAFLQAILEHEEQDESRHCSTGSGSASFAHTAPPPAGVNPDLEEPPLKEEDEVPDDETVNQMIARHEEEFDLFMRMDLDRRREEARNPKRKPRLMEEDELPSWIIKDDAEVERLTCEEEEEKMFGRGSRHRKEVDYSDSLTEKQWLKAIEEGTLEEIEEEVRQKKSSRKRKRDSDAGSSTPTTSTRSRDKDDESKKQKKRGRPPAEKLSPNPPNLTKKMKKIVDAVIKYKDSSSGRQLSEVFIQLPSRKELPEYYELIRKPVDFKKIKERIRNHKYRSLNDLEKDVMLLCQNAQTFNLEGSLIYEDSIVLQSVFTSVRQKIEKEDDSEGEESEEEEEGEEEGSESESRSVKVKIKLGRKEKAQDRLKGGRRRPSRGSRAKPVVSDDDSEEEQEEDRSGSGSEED

Activity: 100%
SMILES: Cc1nnc2c(Nc3cccc(CNC(=O)C(C)C)c3)nc3ccccc3n12
